Patent US20250368647A1, “NITROGEN CONTAINING CONDENSED 2,3-DIHYDROQUINAZOLINONE COMPOUNDS AS NAV1.8 INHIBITORS” (GLAXOSMITHKLINE INTELLECTUAL PROPERTY DEVELOPMENT LIMITED, priority 2022, published 2025)
Counter-ions that a name gives are not always drawn.

Target: human Nav1.8 (Homo sapiens (Human), UniProt Q9Y5Y9)
Experiment: QPatch 48 HTX voltage-clamp electrophysiology, half inactivation state (V1/2) protocol, HEK293-Nav1.8 cells
Assay type: cell-based
Details: HEK293 cells expressing human Nav1.8, human Navβ1 and human TREK1, P2 current; for IC50: read-out: Nav1.8, pIC50 (converted)
Summary of the method: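 HEK293 cells co-expressing Navβ1 and TREK1 were voltage-clamped from −100 mV: a 20 ms step to 0 mV, 8 s inactivation at −46 mV, 20 ms at −100 mV, then a 20 ms P2 test step to 0 mV, repeated every 15 s. P2 current was normalized to vehicle and full block, corrected for run-down, and Hill-fitted (4–6 concentrations) for IC50.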

Chain of human Nav1.8 (Q9Y5Y9 whole entry): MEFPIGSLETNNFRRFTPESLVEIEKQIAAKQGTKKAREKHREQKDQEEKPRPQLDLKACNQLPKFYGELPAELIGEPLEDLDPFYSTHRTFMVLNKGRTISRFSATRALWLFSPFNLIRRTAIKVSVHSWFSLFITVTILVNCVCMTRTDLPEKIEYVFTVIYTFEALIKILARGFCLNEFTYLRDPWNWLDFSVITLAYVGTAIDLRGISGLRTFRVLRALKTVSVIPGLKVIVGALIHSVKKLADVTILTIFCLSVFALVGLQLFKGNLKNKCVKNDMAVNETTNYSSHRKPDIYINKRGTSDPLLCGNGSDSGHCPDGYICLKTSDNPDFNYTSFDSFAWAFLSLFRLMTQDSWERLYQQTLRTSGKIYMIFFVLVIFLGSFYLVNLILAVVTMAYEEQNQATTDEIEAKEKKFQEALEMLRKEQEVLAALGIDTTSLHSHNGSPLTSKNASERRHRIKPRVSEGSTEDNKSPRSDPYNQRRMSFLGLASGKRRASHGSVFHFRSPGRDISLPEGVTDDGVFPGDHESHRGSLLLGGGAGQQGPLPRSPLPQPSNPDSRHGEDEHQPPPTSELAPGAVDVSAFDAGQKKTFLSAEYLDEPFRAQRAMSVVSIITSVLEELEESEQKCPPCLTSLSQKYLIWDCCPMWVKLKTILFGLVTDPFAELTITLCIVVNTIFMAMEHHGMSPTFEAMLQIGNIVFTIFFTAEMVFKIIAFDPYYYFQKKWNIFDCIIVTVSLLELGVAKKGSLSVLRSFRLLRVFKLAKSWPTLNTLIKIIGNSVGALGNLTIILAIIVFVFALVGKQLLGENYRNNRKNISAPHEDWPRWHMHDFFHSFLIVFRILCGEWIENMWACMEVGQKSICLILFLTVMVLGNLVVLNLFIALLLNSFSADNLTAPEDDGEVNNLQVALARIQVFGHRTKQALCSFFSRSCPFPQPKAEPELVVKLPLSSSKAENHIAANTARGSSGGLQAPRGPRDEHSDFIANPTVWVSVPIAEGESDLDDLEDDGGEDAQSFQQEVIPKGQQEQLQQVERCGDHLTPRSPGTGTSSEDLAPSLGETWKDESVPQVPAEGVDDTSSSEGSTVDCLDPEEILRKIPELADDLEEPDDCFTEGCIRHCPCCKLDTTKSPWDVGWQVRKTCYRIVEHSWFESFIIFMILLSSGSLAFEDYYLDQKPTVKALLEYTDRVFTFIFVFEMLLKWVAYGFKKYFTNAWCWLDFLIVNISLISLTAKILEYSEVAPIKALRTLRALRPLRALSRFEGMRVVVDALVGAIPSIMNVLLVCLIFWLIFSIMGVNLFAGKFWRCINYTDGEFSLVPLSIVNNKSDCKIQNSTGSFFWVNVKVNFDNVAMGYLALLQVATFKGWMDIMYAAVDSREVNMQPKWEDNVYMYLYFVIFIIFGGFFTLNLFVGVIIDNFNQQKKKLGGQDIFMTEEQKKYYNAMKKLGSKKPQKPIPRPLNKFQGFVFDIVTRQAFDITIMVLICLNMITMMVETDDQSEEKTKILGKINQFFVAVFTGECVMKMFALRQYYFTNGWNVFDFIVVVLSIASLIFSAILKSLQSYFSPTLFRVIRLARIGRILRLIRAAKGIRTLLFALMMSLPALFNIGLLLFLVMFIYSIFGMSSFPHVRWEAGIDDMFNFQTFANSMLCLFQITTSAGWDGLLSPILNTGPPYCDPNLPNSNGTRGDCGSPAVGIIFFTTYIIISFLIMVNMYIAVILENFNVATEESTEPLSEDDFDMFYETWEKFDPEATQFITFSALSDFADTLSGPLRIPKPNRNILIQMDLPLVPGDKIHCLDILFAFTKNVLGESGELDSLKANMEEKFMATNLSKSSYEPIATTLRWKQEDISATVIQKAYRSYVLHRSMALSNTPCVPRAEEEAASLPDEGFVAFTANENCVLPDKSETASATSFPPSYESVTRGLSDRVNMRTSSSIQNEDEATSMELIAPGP
Chain of human Nav1.8 (Q07699 19-218 partner): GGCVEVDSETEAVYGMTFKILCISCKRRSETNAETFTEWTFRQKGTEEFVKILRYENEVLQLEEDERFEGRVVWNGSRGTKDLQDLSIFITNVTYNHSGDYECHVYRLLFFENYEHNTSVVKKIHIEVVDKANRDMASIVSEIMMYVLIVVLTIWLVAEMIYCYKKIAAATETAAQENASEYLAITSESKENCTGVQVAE

| SMILES | Nav1.8, pIC50 | IC50 |
| --- | --- | --- |
| Cl.O=C1c2cc(F)c(Br)cc2N2CN1c1ccc(=O)[nH]c1CCNCc1c2ccc(F)c1F [Example 62, 3-Bromo-2,8,9-trifluoro-10,11,12,13-tetrahydro-19H-5,18-methanodibenzo[c,f]pyrido[3,2-j][1,5,9]triazacyclotridecine-15,19(14H)-dione hydrochloride] | 8.2 |  |
| Cl.O=C1c2cc(F)c(Br)cc2N2CN1c1ccc(=O)[nH]c1CCNCc1cc(F)ccc12 [Example 63, 3-Bromo-2,8-difluoro-10,11,12,13-tetrahydro-19H-5,18-methanodibenzo[c,f]pyrido[3,2-j][1,5,9]triazacyclotridecine-15,19(14H)-dione hydrochloride] | 8 |  |
| Cl.O=C1c2cc(F)c(F)cc2N2CN1c1ccc(=O)[nH]c1CCNCc1c2ccc(F)c1Cl [Example 64, 9-Chloro-2,3,8-trifluoro-10,11,12,13-tetrahydro-19H-5,18-methanodibenzo[c,f]pyrido[3,2-i][1,5,9]triazacyclotridecine-15,19(14H)-dione hydrochloride] | 8.2 |  |
| O=C1c2c(ccc(C(F)(F)F)c2F)N2CN1c1ccc(=O)[nH]c1CCNCc1cc(F)ccc12 [Example 45, 1,8-Difluoro-2-(trifluoromethyl)-10,11,12,13-tetrahydro-19H-5,18-methanodibenzo[c,f]pyrido[3,2-j][1,5,9]triazacyclotridecine-15,19(14H)-dione] | 6.9 |  |
| O=C1c2cc(F)c(C(F)(F)F)cc2N2CN1c1ccc(=O)[nH]c1CCNCc1cc(F)ccc12 [Example 44, 2,8-Difluoro-3-(trifluoromethyl)-10,11,12,13-tetrahydro-19H-5,18-methanodibenzo[c,f]pyrido[3,2-i][1,5,9]triazacyclotridecine-15,19(14H)-dione] | 8.6 |  |
| C[C@@H]1NCCCc2[nH]c(=O)ccc2N2CN(c3cc(C(F)(F)F)c(F)cc3C2=O)c2ccc(F)cc21 [Example 137, (4S)-2^6,3^4-Difluoro-4-methyl-2^7-(trifluoromethyl)-1^1,1^2,2^1,2^2,2^3,2^4-hexahydro-5-aza-2(3,1)-quinazolina-1(5,6)-pyridina-3(1,2)-benzenacyclooctaphane-1^2,2^4-dione] | 6.6 |  |
| O=C1c2cc(C(F)(F)F)ccc2N2CN1c1ccc(=O)[nH]c1NCCOc1cc(F)ccc12 [Example 15, 8-Fluoro-2-(trifluoromethyl)-12,13-dihydro-11H,19H-5,18-methanodibenzo[i,j]pyrido[2,3-e][1]oxa[4,7,11]triazacyclotridecine-15,19(14H)-dione] | 5.7 |  |
| CC1CCc2c(ccc(F)c2F)N2CN(C(=O)c3cc(F)c(C(F)(F)F)cc32)c2ccc(=O)[nH]c2N1 (stereo not shown) [Example 130, 2,8,9-Trifluoro-12-methyl-3-(trifluoromethyl)-10,11,12,13-tetrahydro-19H-5,18-methanodibenzo[f,i]pyrido[2,3-b][1,4,8]triazacyclotridecin-15,19(14H)-dione] | 6.8 |  |
| Cl.N#Cc1cc2c(cc1F)C(=O)N1CN2c2ccc(OC(F)(F)F)c(F)c2CNCCc2[nH]c(=O)ccc21 [Example 89, 2,9-Difluoro-15,19-dioxo-8-(trifluoromethoxy)-10,11,12,13,14,15-hexahydro-19H-5,18-methanodibenzo[c,f]pyrido[3,2-j][1,5,9]triazacyclotridecine-3-carbonitrile hydrochloride] | 8.1 |  |
| Cl.O=C1c2cc(F)c(F)cc2N2CN1c1ccc(=O)[nH]c1CCNCc1c2ccc(Cl)c1Cl [Example 77, 8,9-Dichloro-2,3-difluoro-10,11,12,13-tetrahydro-19H-5,18-methanodibenzo[c,f]pyrido[3,2-j][1,5,9]triazacyclotridecine-15,19(14H)-dione hydrochloride] | 8.7 |  |
| O=C1c2cc(C(F)(F)F)ncc2N2CN1c1ccc(=O)[nH]c1CCCCCc1cc(F)ccc12 [Example 21, 3^4-Fluoro-2^6-(trifluoromethyl)-1^1,1^2,2^1,2^2,2^3,2^4-hexahydro-2(3,1)-pyrido[3,4-d]pyrimidina-1(5,6)-pyridina-3(1,2)-benzenacyclooctaphane-1^2,2^4-dione] | 7.6 |  |
| O=C1c2cc(Cl)cnc2N2CN1c1ccc(=O)[nH]c1CCNCc1cc(F)ccc12 [Example 42, 2-Chloro-8-fluoro-10,11,12,13-tetrahydro-19H-5,18-methanodibenzo[c]dipyrido[2,3-f:3′,2′-j][1,5,9]triazacyclotridecine-15,19(14H)-dione] | 6.9 |  |
| Cl.O=C1c2cc(F)c(C(F)(F)F)cc2N2CN1c1ccc(=O)[nH]c1CCCNCc1c2ccc(F)c1F [Example 108, 2^6,3^3,3^4-trifluoro-2^7-(trifluoromethyl)-1^1,1^2,2^1,2^2,2^3,2^4-hexahydro-5-aza-2(3,1)-quinazolina-1(5,6)-pyridina-3(1,2)-benzenacyclooctaphane-1^2,2^4-dione hydrochloride] | 7.6 |  |
| O=C1c2cc(C(F)(F)F)ccc2N2CN1c1ccc(=O)[nH]c1/C=C/Cc1cc(F)ccc12 [Example 1, (E)-8-Fluoro-2-(trifluoromethyl)-13-hydro-10H, 18H,-5,17-methanodibenzo[b,k]pyrido[3,2-f][1,5]diazacyclododecine-14,18-dione] | 5.1 |  |
| N#Cc1cc2c(cc1F)C(=O)N1CN2c2ccc(F)c(F)c2CNCCc2[nH]c(=O)ccc21 [Example 57, 2,8,9-Trifluoro-15,19-dioxo-10,11,12,13,14,15-hexahydro-19H-5,18-methano-dibenzo[c,f]pyrido[3,2-j][1,5,9]triazacyclotridecine-3-carbonitrile] | 7.4 |  |
| O=C1c2cc(C(F)(F)F)ccc2N2CN1c1ccc(=O)[nH]c1CCCCCCc1cc(F)ccc12 [Example 10, 3^4-Fluoro-2^6-(trifluoromethyl)-1^1,1^2,2^1,2^2,2^3,2^4-hexahydro-2(3,1)-quinazolina-1(5,6)-pyridina-3(1,2)-benzenacyclononaphane-1^2,2^4-dione] | 6.5 |  |
| Cc1c(F)ccc2c1CNCCc1[nH]c(=O)ccc1N1CN2c2cc(C(F)(F)F)c(F)cc2C1=O [Example 61, 2,8-Difluoro-9-methyl-3-(trifluoromethyl)-10,11,12,13-tetrahydro-19H-5,18-methanodibenzo[c,f]pyrido[3,2-j][1,5,9]triazacyclotridecine-15,19(14H)-dione hydrochloride] |  | 0.00398 µM |
| O=C1c2cc(Cl)c(F)cc2N2CN1c1ccc(=O)[nH]c1NCCCc1cc(F)ccc12 [Example 96, 2-Chloro-3,8-difluoro-10,11,12,13-tetrahydro-19H-5,18-methanodibenzo[f,i]pyrido[2,3-b]-[1,4,8]triazacyclotridecine-15,19(14H)-dione] | 7.5 |  |
| CC1NCCc2[nH]c(=O)ccc2N2CN(c3cc(Cl)c(F)cc3C2=O)c2ccc(F)cc21 (racemic) [Example 120, 3-Chloro-2,8-difluoro-10-methyl-10,11,12,13-tetrahydro-19H-5,18-methanodibenzo[c,f]pyrido-[3,2-j][1,5,9]triazacyclotridecine-15,19(14H)-dione hydrochloride] | 7 |  |
| O=C1c2cc(F)c(F)cc2N2CN1c1ccc(=O)[nH]c1NCCCc1c2ccc(F)c1F [Example 98, 2,3,8,9-Tetrafluoro-10,11,12,13-tetrahydro-19H-5,18-methanodibenzo[f,i]pyrido[2,3-b]-[1,4,8]triazacyclotridecine-15,19(14H)-dione, formic acid salt] | 7.6 |  |
| Cl.O=C1c2cc(F)c(F)cc2N2CN1c1ccc(=O)[nH]c1CCNCc1cc(Cl)ccc12 [Example 76, 8-Chloro-2,3-difluoro-10,11,12,13-tetrahydro-19H-5,18-methanodibenzo[c,f]pyrido[3,2-j][1,5,9]triazacyclotridecine-15,19(14H)-dione hydrochloride] | 7.2 |  |
| C[C@H]1NCCc2[nH]c(=O)ccc2N2CN(c3cc(C(F)(F)F)c(F)cc3C2=O)c2ccc(F)cc21 [Example 118, (10R)-2,8-difluoro-10-methyl-3-(trifluoromethyl)-10,11,12,13-tetrahydro-19H-5,18-methanodibenzo[c,f]pyrido[3,2-j][1,5,9]triazacyclotridecine-11(10H)-dione] |  | 0.0316 µM |
| O=C1c2cc(C(F)(F)F)cnc2N2CN1c1ccc(=O)[nH]c1NCCCc1cc(F)ccc12 [Example 34, 8-Fluoro-2-(trifluoromethyl)-10,11,12,13-tetrahydro-19H-5,18-methanodibenzo[i]dipyrido[2,3,-b:3′,2′-f][1,4,8]triazacyclotridecine-15,19(14H)-dione] | 6.4 |  |
| O=C1c2cc(F)c(C(F)(F)F)cc2N2CN1c1ccc(=O)[nH]c1CCNCc1c2ccc(F)c1Cl [Example 58, 9-Chloro-2,8-difluoro-3-(trifluoromethyl)-10,11,12,13-tetrahydro-19H-5,18-methano-dibenzo[c,f]pyrido[3,2-j][1,5,9]triazacyclotridecine-15,19(14H)-dione] | 8.9 |  |
| Cl.O=C1c2cc(Cl)c(C(F)(F)F)cc2N2CN1c1ccc(=O)[nH]c1CCNCc1c2ccc(F)c1F [Example 60, 2-Chloro-8,9-difluoro-3-(trifluoromethyl)-10,11,12,13-tetrahydro-19H-5,18-methanodibenzo[c,f]pyrido[3,2-j][1,5,9]triazacyclotridecine-15,19(14H)-dione hydrochloride] | 8.8 |  |
